Experimental data reported in US6248901A, “Heterocyclic vinyl ethers” (Hoffman-La Roche Inc., priority 1997, dated 2001).

Each compound was assayed against rat mGluR2 receptor (Rattus norvegicus, UniProt P31421) (assay: GTP γ^35 S test for affinity to group II mGluR (antagonism of 1S,3R-ACPD effect, membranes with rat mGluR2)).
rat mGluR2 receptor, sequence (P31421 19-872): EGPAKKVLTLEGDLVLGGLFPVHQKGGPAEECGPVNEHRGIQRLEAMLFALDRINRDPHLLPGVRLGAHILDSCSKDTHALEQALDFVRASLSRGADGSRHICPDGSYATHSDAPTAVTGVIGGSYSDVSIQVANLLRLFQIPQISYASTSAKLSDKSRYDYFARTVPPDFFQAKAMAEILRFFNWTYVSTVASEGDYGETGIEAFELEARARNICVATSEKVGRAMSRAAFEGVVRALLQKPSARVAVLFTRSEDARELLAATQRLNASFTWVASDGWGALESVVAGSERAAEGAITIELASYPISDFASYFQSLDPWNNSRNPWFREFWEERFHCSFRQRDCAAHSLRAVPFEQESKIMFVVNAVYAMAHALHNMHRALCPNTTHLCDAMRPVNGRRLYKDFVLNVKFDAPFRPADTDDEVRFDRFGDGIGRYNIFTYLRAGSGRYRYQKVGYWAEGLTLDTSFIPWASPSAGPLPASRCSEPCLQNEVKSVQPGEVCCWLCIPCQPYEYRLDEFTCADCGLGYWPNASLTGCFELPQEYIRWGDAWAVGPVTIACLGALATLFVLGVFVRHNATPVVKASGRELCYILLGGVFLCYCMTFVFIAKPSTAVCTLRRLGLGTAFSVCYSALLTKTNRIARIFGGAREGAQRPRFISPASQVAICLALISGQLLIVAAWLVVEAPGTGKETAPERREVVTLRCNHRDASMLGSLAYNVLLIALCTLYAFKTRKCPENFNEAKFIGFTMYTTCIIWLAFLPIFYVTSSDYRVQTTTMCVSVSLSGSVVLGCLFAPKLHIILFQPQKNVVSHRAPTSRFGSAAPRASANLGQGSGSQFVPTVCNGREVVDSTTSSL
Type: biochemical
Description: The binding of the compounds of formula I in accordance with the invention to group II metabotropic glutamate receptors was determined in vitro. The preparations were tested in accordance with the test given hereinafter:
The GTP γ^35 S test was used to determine the affinity of a compound to the group II mGluR. Membranes which adhere to the rat mGluR2 receptor were used. These were stimulated with 10 μM 1S,3R-ACPD.
The Ki values of the compounds to be tested are given. The Ki value is defined by the following formula [formula]
With `CC(C)OC(=Cn1cncn1)c1ccc(Cl)cc1Cl` [A, 1-[2-(2,4-Dichloro-phenyl)-2-isopropoxy-vinyl]-1H-[1,2,4]triazole] the Ki was 1170 nM. With `CC(C)COC(=Cn1cncn1)c1ccc(Cl)cc1Cl` [B, 1-[2-(2,4-Dichloro-phenyl)-2-isobutoxy-vinyl]-1H-[1,2,4]triazole] the Ki was 640 nM. `CCCCOC(=Cn1cncn1)c1ccc(Cl)cc1Cl` [C, 1-[-2-(2,4-Dichloro-phenyl)-2-butoxy-2-vinyl]-1H-[1,2,4]triazole] gave a Ki of 1400 nM. For `CC(C)OC(=Cn1cncn1)c1c(Cl)cc(Cl)cc1Cl` [D, 1-[2-(2,4,6-Trichloro-phenyl)-2-isopropoxy-vinyl]-1H-[1,2,4]triazole], the Ki was 2700 nM. In the case of `COC(=Cn1cncn1)c1ccc(Cl)cc1Cl` [E, 1-[2-(2,4-Dichloro-phenyl)-2-methoxy-vinyl]-1H-[1,2,4]triazole], the Ki is reported as 11000 nM. `CCCCOC(=Cn1cncn1)c1ccc(Br)cc1` [F, 1-[2-(4-Bromo-phenyl)-2-butoxy-vinyl]-1H-[1,2,4]triazole] showed a Ki of 660 nM.
